The values that follow come from US9050353B2, “Use of icariin and epimedium flavonoids containing icariin to treat diseases associated with myelin sheath lesion” (Xuanwu Hospital of Capital Medical University, priority 2010, dated 2015).

One assay has as its system IL-1β. The experiment in a line: IL-1β of spinal cord lumbar intumescentia by immunohistochemical method, EAE rats. The assay is classed as in vivo. To be noted: positive control drug, dose not given. The protocol:
(§1) Preparation of rat model and administration: experimental autoimmune encephalomyelitis (EAE) model is an important tool for studying various human demyelinating diseases of nervous system. In the example, the preparation of EAE rat model was performed by multipoint immunizing female Lewis rats subcutaneously at tail root with a homogenate of spinal cord and cerebral gray matter of Guinea pig as well as complete Freund's adjuvant after emulsification. They were intragastrically administered with Epimedium flavanoids for 3 weeks.
Experimental objective: interleukin 1β (IL-1β) is an important inflammatory cytokines, and has promoting effects on inflammatory reactions. This experiment used immunohistochemical method to measure the content of IL-1β in spinal cord lumbar intumescentia of EAE model group rat, and observed the effects of Epimedium flavanoids on the content.
Experimental method: rats were anesthetized with 10% chloral hydrate, fixed by perfusion of 4% paraformaldehyde, spinal cord tissue was taken for making frozen section. Incubated with IL-1β primary antibody, added with corresponding secondary antibody, third antibody, DAB developed, observed under microscope. Pictures were analyzed by Image Pro plus 5.0 software.

Another assay deals with CNPase. The experiment in a line: Spinal cord CNPase by Western blot, EAE mice. It counts as in vivo. To be noted: positive control drug, dose not given. The protocol:
(§2) Preparation of mice model and administration: experimental autoimmune encephalomyelitis (EAE) mice model is an important tool for studying various human demyelinating diseases of nervous system. In the present experiment, the preparation of EAE mice model was performed by immunizing female C57BL/6J mice with myelin sheath oligodendroglial cell surface glycoprotein MOG35-55. That is, the mice were subcutaneously injected at dorsal part of spinal column with 0.2 mL of MOG35-55 antigen elixir, and 0.2 ml of bordetella pertussis solution was intraperitoneally injected at the time of immunization injection and 48 h thereafter, respectively. Icariin was intragastrically administered after the last injection of bordetella pertussis solution, for consecutive 3 weeks.
Experimental objective: myelin sheath is formed with prominences of oligodendroglial cells. CNPase, myelin basic protein (MBP) are marker proteins of mature oligodendroglial cells. The present experiment was to observe the expression of CNPase and MBP to represent the content of oligodendroglial cells in spinal cord of EAE model mice by Western blot method; and to study the effects of icariin on it.
Experimental method: the mice were anesthetized and sacrificed, fresh spinal cord was taken on ice, total protein was extracted by cleavage on ice, to prepare Western blot sample, added separately with CNPase, MBP primary antibodies and incubated, added with corresponding secondary antibodies, ECL colorated, Kodak film exposed. Pictures were analyzed with Image J software and standardized with β-actin.
(In general: Immunoblotting shows a protein as a band on a membrane.)

The subject of assay [1] is experimental autoimmune encephalomyelitis (EAE) mice model. The experiment in a line: Nervous function damage score in EAE mice model. The assay is classed as in vivo, C57BL/6J mice. As to conditions: peak of attack, positive control drug, dose not given, scale 0-5. The protocol: as §2
Nervous function test method: the ethological changes of mice were observed by two experimenters every day using blind method. Scoring standard: 0 score, absence of symptom; 1 score, decrease of tail tension, evident slight gait awkward; 2 score, disappearance of tail tension, moderate gait abnormal, deficient in maintaining gesture; 3 score, limb strength weak; 4 score, limb paralysis; 5 score, near death or died.

Assay [2] deals with myeloid tissue myelinoclasis in EAE mice model. The experiment in a line: Myelinoclasis of myeloid tissue, LFB staining, EAE mice. The assay is classed as in vivo. As to conditions: positive control drug, dose not given, scale 0-4. The protocol: as §2
Experimental objective: the myelinoclasis of myeloid tissue of EAE model mice were assayed by Luxol Fast Blue (LFB) staining, and the intervention effects of icariin on this pathological change were studied.
Experimental method: the mice were anesthetized with 10% chloral hydrate on the 29th day of experiment, fixed by perfusion of 4% paraformaldehyde, myeloid tissues were taken for making paraffin sections, section thickness […]. Stained with LFB, observed under microscope, and scored according to the following standard: 0 score, absence of myelinoclasis; 1 score, one small range of myelinoclasis; 2 score, 2 or 3 small ranges of myelinoclasis; 3 score, 1 to 2 large ranges of myelinoclasis; 4 score, large ranges of myelinoclasis accumulatively existing in 20% or more of white matter regions.

Assay [3] deals with Brain-derived neurotrophic factor (BDNF). The experiment in a line: BDNF of spinal cord lumbar intumescentia by immunohistochemical method, EAE rats. It counts as in vivo. To be noted: positive control drug, dose not given. As for the experimental part: as §1
Experimental objective: neurotrophic factors are important substances for constituting nerve regeneration microenvironment. Brain-derived neurotrophic factor (BDNF) is an important neurotrophic factor, can promote the regeneration and plerosis of myelin sheath. In this experiment, BDNF content of spinal cord lumbar intumescentia in EAE rat model was measured by immunohistochemical method, and the effects of Epimedium flavanoids on the content was observed.
Experimental method: the rats were anesthetized with 10% chloral hydrate, fixed by perfusion of 4% paraformaldehyde, spinal cord tissues were taken for frozen section. Incubated with BDNF primary antibody, added with corresponding secondary antibody and third antibody, DAB colorated, observed under microscope, and pictures were analyzed using Image Pro plus5.0 software.

For the next assay, the system named is IL-6. The experiment in a line: Serum IL-6 content by ELISA, EAE mice. To be noted: positive control drug, dose not given. The assay is classed as in vivo. The protocol: as §2
Experimental objective: interleukin-1 (IL-1) and IL-6 are important inflammatory cytokines, and have promoting effects on inflammatory reactions. This experiment used enzyme linked immunosorbent assay (ELISA) to measure contents of IL-1 and IL-6 in serums of EAE mice model, and the effects of icariin on these contents were observed.
Experimental method: mice were anesthetized with pentobarbital sodium, blood sample was taken from abdominal aorta, stood at room temperature for 2 h, centrifuged at 3000 rpm for 20 min, and supernatant was taken, stored at −80° C. for use. The operation was performed strictly according to the steps of specification of ELISA kit. Optical density was measured with ELIASA at 450 nm. The corresponding contents of IL-1 and IL-6 were calculated with the measured OD values on standard curves.
On the technique in general: In an ELISA, binding on a coated surface is turned into a signal by an enzyme label.

Assay [4] concerns peripheral blood CD4+ and CD8+ T cells. The experiment in a line: Peripheral blood T cell subgroup by flow cytometer, EAE mice. To be noted: positive control drug, dose not given. It counts as in vivo. The protocol:
as §2
Experimental objective: one common feature of autoimmune diseases is the […]. In this experiment, the numbers of CD4+ and CD8+ cells in peripheral blood T cell subgroup of EAE mice mode were measured by flow cytometer (FACS), and the ratio of them was obtained; and the effects of icariin on these changes were observed.
Experimental method: mice were anesthetized with pentobarbital sodium, blood sample was taken from abdominal aorta, stood at room temperature for 2 h, centrifuged at 3000 rpm for 20 min, and cells were taken, added with anti-CD4+, CD8+ T cell antibodies with different markers, then the percentages of CD4+, CD8+ cells in T lymphocytes were measured by flow cytometer, and the CD4+/CD8+ T cells ratio was calculated.
For orientation: In flow cytometry, cells or beads pass a laser one at a time.

For the compound `CC(=O)OCC(=O)[C@@]1(O)CC[C@H]2[C@@H]3CCC4=CC(=O)C=C[C@]4(C)[C@H]3C(=O)C[C@@]21C` [prednisone acetate], in the assay with IL-1β, the “IL-1β Accumulative optical density” value is on record as 115.5 ± 8.6 ×10^3 and the “IL-1β Positive cell number” value is listed as 672 ± 48. Further, the “CNPase/actin Integration grey level” value in the assay on CNPase is 1.20 ± 0.01. For the same compound, the “Nervous function damage score” value in assay [1] was found to be 0.89 ± 0.28. Besides, the “Myelinoclasis (LFB staining score)” value in assay [2] turned out to be 0.77 ± 0.22. For the same compound, in assay [3], the “integrated optical density of BDNF positive cell” value was 3.64 ± 0.23 ×10^5 and the “total area of BDNF positive cell” value is 9.43 ± 1.12 ×10^5. This compound also showed an IL-6 content in the assay with IL-6 of 0.121 ± 0.010 pg/mL. Besides, in assay [4], the “CD4 + T cells” value came out at 30.45 ± 8.77%, the “CD4 +/CD8 + ratio” value came out at 0.52 ± 0.23 and the “CD8 + T cells” value is given as 60.62 ± 5.58%.
